Data reported in US11903911B1, “Method of treating obesity by reversal of Na/K-Atpase inhibition” (Marshall University Research Corporation, priority 2019, dated 2024).
“Also recorded” adds a separate entry of the source.

Experiments:
transporter activities = assay: L-NAME dose finding on intestinal transporter activities; type: in vivo; conditions: 10 or 25 mg/kg per day tested in mice and rats
Source text: (§1) Animal models and treatment. Zucker rats (Strain code: 185 (Obese), 186 (Lean); 18 wks) obtained from Charles River Laboratories International, Inc. were used as a genetic model of obesity, and C57BL/6 mice (B6) (The Jackson Laboratory) and Sprague Dawley rats (Strain code: 400; Charles River Laboratories International, Inc.) were used as a diet-induced model of obesity. B6 mice were fed with either a low-fat diet (LFD) (10% calories from fat; Cat. No: 58124, LabDiet, USA) or high-fat diet (HFD) (60% calories from fat; Cat. No: 58126, LabDiet, USA) starting at 4 weeks of age until they reached 20 weeks of age. Sprague Dawley rats were fed the above-mentioned diets from the age of 12 weeks for 6 weeks to induce obesity. To inhibit constitutive nitric oxide production in both mice and rats, the animals were first treated with either a 10 or 25 mg/kg per day dosage of used N^G-nitro-L-arginine methyl ester (L-NAME). Studies determined that 10 mg dose of L-NAME was the lowest dose to consistently affect transporter activities and was therefore used in all subsequent experiments. For the diet-induced mice obesity model, LFD and HFD fed B6 mice were treated with this dose from the age of 20 weeks, and Sprague Dawley rats were treated from the age of 17 wks for 1 week. All the experimental animals were handled and euthanized according to Marshall University IACUC regulations.

[1] = system: Cl:HCO3 exchange (DRA/PAT1); assay: Cl/HCO3 exchange uptake in BBMV of L-NAME-treated obese rats; type: in vivo, rat; conditions: obese rats (OZR) treated for at least one week with L-NAME; FIG. 22
Source text: as §1, with “[…] Cl/HCO3 exchange uptake was measured in BBMV by rapid filtration technique as previously described. […] Results were calculated as” for “For”, “HCO3 dependent DIDS sensitive Cl uptake.” for “diet-induced mice obesity model, LFD and HFD fed B6 mice were treated with this dose from the age of 20 weeks, and Sprague Dawley rats were treated from the age of 17 wks for 1 week. All the experimental animals were handled and euthanized according to Marshall University IACUC regulations.”

SGLT1 = assay: Na-glucose co-transport (SGLT1) uptake in villus cell BBMV of L-NAME-treated obese rats; type: in vivo, rat; conditions: obese rats (OZR) treated for at least one week with L-NAME; FIG. 21
Source text: as §1, with “To inhibit constitutive nitric oxide production in both mice and rats, the animals were first treated with either a 10 or 25 mg/kg per day dosage of used N^G-nitro-L-arginine methyl ester (L-NAME).” left out, “For the diet-induced mice obesity model, LFD and HFD fed B6 mice were treated with this dose from the age of 20 weeks, and Sprague Dawley rats were treated from the age of 17 wks for 1 week. All the experimental animals were handled and euthanized according to Marshall University IACUC regulations.” left out
Uptake studies in intact villus cells and BBMVs. […] Filters with intact villus cells were dissolved in 5 ml scintillation fluid (Ecoscint, National Diagnostics), and radioactivity was determined in a Beckman 6500 Beta Scintillation Counter. […] The uptake experiment results were expressed as Na-glucose co-transport uptake in nanomoles per milligram protein at 60 sec for mice or 90 sec for rats. […]

NHE3 = assay: Na/H exchange (NHE3) uptake in BBMV of L-NAME-treated obese rats; type: in vivo, rat; conditions: obese rats treated with L-NAME; FIG. 23
Source text: as §1, with “[…] Na/H exchange uptake was measured in BBMV by rapid filtration technique as previously described. […] The results” for “For the diet-induced mice obesity model, LFD and HFD fed B6 mice”, “expressed as Na/H exchange in picomoles per milligram protein at 60 sec.” for “treated with this dose from the age of 20 weeks, and Sprague Dawley rats were treated from the age of 17 wks for 1 week. All the experimental animals were handled and euthanized according to Marshall University IACUC regulations.”

In the case of `COC(=O)[C@@H](N)CCCNC(=N)N[N+](=O)[O-]` [L-NAME, N^G-nitro-L-arginine methyl ester], the “lowest dose to consistently affect transporter activities” value (transporter activities) is reported as 10 mg, the “effect on the stimulation of Cl:HCO3 (NaCl absorption) in obese rats” value [1] is reported as “reversed the stimulation of Cl:HCO3” and the “effect on the stimulation of SGLT1 (glucose absorption) in obese rats” value (SGLT1) is reported as “reversed the stimulation of SGLT1”. The “effect on NHE3 activity in obese rats” value (NHE3) was “did not affect NHE3; also recorded: does not affect NHE3 activity”.
